Among the targets are Cytochrome P450 3A4 (Homo sapiens, UniProt P08684); Cytochrome P450 2C9 (Homo sapiens, UniProt P11712); Cytochrome P450 2D6 (Homo sapiens, UniProt P10635).
In test [1] the target is T1, Corticotropin-releasing factor receptor 2/Corticotropin-releasing factor-binding protein (Homo sapiens, UniProt P24387+Q13324).
T1 sequence (Q13324 whole entry): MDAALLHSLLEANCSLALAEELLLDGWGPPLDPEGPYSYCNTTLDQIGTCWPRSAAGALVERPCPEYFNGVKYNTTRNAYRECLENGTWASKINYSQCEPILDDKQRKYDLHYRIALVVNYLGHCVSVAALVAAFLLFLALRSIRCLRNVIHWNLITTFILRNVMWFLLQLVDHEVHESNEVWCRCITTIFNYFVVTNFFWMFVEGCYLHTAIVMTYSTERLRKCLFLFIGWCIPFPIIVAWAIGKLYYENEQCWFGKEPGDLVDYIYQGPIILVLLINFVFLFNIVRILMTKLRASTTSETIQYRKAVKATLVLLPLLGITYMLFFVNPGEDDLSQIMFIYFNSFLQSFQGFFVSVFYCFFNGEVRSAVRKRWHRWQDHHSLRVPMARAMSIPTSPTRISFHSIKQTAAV
T1 sequence (P24387 whole entry): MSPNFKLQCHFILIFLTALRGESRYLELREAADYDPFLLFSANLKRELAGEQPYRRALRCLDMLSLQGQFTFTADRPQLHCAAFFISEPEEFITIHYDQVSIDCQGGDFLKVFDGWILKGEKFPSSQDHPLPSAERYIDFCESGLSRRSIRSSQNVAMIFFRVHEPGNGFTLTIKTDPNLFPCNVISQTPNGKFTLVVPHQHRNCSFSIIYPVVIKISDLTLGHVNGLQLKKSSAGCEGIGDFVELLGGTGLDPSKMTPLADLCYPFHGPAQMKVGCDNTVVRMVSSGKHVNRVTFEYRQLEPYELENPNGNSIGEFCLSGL
Put plainly: Dose Response confirmation of uHTS hits for small molecule antagonists of the CRF-binding protein and CRF-R2 receptor complex. In kind it is functional. The following applies: read-out: IC50_Mean.

Test [2] concerns the target T1, Corticotropin-releasing factor receptor 2/Corticotropin-releasing factor-binding protein. Put plainly: activators of CRF receptor 2 with binding protein – uHTS hits, confirmation (AID 602473). In kind it is functional. The settings on record: read-out: EC50_Mean.
Test [3] can be described thus: Luminescence Cell-Based Dose Retest to Confirm Inhibitors of Cancer Stem Cells. [Related pubchem assays (depositor defined):AID2717, AID2721]. In kind it is functional. The following applies: Homo sapiens.
Test [4] is described as follows: luciferase reporter signal suppression in cells – H4 neuroglioma cells, luminescence, dose response (AID 1990). In kind it is functional, cell-based. (In a reporter assay the amount or activity of a reporter protein is the signal.)
Test [5] can be described thus: Luminescence Cell-Based Dose Response HTS to Identify Inhibitors of 5'UTR Stem-Loop Driven Prion Protein mRNA Translation in H4 Neuroglioblastoma Cells. [Related pubchem assays: 1827 (Project Summary), 1813 (Primary HTS)]. It counts as functional.
The nature of test [6]: alpha-synuclein stem-loop luciferase translation blockers – H4 neuroglioma cells, luminescence, confirmation (AID 1988). In kind it is functional, cell-based.
The target of another test is T2, Cytochrome P450 1A2 (Homo sapiens, UniProt P05177).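 Also: PubChem cytochrome P450 panel assay, CYP1A2 panel member.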
T2 sequence (P05177 whole entry): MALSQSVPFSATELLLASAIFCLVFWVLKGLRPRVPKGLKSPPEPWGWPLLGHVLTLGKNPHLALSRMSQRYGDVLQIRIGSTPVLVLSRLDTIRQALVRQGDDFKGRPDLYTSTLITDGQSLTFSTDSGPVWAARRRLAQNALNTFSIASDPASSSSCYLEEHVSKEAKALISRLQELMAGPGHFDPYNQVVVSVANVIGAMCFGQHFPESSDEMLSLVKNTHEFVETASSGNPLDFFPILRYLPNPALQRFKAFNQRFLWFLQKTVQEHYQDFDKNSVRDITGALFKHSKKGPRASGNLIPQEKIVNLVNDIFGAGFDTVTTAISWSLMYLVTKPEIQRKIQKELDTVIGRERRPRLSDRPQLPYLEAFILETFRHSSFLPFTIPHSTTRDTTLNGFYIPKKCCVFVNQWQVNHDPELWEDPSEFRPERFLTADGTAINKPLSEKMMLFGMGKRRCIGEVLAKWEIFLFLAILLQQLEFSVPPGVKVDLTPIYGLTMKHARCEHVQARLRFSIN

Test [7] deals with T3, Fatty acid synthase (Homo sapiens, UniProt P49327). The experiment in a line: inhibition of human FAS-TE enzyme activity – biochemical, endpoint fluorescence intensity, uHTS hits, dose response (AID 624327).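 Also: fluorescence from hydrolysis of an O-methyl fluorescein acyl ester substrate by the enzyme.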 It counts as functional.
T3 sequence (P49327 whole entry): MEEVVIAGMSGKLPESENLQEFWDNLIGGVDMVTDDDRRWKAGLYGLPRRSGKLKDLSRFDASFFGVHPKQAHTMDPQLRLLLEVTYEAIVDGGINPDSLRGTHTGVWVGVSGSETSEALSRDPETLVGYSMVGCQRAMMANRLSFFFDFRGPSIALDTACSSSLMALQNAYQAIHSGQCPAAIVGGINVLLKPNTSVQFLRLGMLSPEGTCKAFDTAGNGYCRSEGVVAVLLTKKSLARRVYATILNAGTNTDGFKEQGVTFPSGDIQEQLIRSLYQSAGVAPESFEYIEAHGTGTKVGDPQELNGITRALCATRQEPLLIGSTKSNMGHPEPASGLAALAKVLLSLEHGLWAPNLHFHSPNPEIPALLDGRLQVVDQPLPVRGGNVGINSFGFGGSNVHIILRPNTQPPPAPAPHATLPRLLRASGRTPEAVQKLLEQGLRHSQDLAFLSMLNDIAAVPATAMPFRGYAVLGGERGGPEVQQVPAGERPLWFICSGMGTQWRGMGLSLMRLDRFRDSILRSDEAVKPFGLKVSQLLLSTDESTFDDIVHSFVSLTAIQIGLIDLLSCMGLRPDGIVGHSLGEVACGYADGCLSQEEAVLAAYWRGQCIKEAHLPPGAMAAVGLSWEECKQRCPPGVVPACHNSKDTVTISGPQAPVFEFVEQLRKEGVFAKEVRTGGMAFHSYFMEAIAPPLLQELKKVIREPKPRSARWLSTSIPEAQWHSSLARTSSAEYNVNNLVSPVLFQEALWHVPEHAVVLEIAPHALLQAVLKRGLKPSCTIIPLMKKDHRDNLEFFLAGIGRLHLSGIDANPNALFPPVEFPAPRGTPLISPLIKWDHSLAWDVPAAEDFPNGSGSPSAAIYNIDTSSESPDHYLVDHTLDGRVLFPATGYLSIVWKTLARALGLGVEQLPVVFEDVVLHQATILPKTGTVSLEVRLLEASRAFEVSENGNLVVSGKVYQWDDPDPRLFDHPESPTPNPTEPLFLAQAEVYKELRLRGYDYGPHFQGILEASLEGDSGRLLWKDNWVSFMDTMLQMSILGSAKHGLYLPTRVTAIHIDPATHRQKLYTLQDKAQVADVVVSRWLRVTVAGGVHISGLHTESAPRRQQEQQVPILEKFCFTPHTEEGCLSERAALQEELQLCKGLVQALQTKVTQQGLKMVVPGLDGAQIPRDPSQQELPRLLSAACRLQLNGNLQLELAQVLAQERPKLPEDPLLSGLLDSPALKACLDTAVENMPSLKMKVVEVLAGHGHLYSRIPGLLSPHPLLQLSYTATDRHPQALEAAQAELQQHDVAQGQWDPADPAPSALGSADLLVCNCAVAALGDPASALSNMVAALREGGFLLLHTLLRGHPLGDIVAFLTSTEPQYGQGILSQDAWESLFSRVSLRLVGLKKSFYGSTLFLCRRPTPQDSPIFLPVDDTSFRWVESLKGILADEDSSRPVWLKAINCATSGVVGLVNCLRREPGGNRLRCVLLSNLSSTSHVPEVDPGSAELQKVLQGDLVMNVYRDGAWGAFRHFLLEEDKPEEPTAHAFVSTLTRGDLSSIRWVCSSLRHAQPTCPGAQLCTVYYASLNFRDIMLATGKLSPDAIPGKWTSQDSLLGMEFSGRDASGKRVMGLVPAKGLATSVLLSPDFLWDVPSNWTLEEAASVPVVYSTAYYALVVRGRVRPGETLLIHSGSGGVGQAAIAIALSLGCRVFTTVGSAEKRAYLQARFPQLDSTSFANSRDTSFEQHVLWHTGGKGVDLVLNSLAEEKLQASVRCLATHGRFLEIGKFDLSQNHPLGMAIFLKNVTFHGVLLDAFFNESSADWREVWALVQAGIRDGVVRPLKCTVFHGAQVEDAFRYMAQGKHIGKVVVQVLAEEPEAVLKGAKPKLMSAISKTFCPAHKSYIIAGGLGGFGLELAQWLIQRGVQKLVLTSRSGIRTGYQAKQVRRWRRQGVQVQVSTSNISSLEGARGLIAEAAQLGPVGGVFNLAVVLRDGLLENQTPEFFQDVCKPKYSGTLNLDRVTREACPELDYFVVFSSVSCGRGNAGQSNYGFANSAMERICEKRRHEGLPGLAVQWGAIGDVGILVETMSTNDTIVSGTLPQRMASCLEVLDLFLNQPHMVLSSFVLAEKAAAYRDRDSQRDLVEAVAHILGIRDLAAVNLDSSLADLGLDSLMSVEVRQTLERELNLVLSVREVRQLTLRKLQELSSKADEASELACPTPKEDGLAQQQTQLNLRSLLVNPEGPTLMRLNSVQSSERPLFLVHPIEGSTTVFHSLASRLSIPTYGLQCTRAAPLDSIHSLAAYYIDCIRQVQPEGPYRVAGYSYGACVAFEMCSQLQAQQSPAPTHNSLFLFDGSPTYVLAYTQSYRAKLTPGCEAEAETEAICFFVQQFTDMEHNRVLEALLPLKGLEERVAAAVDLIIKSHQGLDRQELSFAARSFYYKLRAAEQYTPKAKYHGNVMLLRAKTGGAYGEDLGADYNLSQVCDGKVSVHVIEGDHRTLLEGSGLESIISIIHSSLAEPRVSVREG
In test [8] the target is T3, Fatty acid synthase. Put plainly: inhibition of human FAS-TE enzyme activity – biochemical, kinetic fluorescence intensity, dose response (AID 624326).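 Also: rate of fluorescence rise from hydrolysis of a fluorogenic O-methyl fluorescein ester substrate.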 In kind it is functional.
In the next test the target is Cytochrome P450 2C19 (Homo sapiens, UniProt P33261). Put plainly: Cytochrome panel assay with activity outcomes. Panel member name: p450-cyp2c19 Compounds with AC50 equal or less than 10 uM are considered active. In kind it is functional. The following applies: read-out: AC50.
Cytochrome P450 2C19, sequence (P33261 whole entry): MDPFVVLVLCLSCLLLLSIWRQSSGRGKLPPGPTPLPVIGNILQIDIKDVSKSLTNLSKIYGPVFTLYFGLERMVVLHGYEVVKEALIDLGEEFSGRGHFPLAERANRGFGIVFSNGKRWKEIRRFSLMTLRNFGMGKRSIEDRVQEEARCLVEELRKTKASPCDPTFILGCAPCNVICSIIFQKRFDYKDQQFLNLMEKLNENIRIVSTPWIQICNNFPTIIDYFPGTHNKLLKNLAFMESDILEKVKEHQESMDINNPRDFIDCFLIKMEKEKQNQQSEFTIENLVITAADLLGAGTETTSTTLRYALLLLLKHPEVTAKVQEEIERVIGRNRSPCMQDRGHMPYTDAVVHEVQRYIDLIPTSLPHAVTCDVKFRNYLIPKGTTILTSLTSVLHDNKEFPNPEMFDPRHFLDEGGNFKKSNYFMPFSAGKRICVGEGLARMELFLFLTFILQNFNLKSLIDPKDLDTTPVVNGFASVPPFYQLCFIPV
The nature of test [9]: viability of uninfected HEp-2 cells – cell-based, HTS, cytotoxicity control for RSV inhibitor project, dose response (AID 2410). It counts as functional. The settings on record: human respiratory syncytial virus.
The nature of test [10]: Trypanosoma cruzi growth suppression in host cells – NIH3T3 host cells, beta-gal luminescence, confirmation (AID 2044).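 Also: intracellular parasites grown in NIH/3T3 mouse fibroblasts as host cells; luminescent beta-galactosidase reporter signal from transgenic T. cruzi replicating inside host cells; inhibitors lower the luminescence signal.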 It counts as functional, cell-based.
Test [11] is described as follows: NIH3T3 cell viability loss – ATP luminescence, mouse fibroblasts, counter-screen, dose response (AID 2010).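 Also: cells exposed to compound for about 90 hours before reading.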 In kind it is functional, cell-based.
Another test concerns H4. Put plainly: Luminescence Cell-Based Dose Response HTS to Identify Activators of 5'UTR Stem-Loop Driven Prion Protein mRNA Translation in H4 Neuroglioblastoma Cells. [Related pubchem assays: 1829 (Project Summary), 1814 (Primary HTS)]. It counts as functional. The following applies: Homo sapiens.

This note sets out measurements from ChEMBL document CHEMBL1201862, “PubChem BioAssay data set” (2004).

Activity calls are given as the source filed them. Some results are limits rather than exact numbers.

One may read the AC50 as the concentration giving half of the maximal activity seen. Broadly, the CC50 is the concentration giving 50% cytotoxicity.

Cytochrome P450 2C9, sequence (P11712 whole entry): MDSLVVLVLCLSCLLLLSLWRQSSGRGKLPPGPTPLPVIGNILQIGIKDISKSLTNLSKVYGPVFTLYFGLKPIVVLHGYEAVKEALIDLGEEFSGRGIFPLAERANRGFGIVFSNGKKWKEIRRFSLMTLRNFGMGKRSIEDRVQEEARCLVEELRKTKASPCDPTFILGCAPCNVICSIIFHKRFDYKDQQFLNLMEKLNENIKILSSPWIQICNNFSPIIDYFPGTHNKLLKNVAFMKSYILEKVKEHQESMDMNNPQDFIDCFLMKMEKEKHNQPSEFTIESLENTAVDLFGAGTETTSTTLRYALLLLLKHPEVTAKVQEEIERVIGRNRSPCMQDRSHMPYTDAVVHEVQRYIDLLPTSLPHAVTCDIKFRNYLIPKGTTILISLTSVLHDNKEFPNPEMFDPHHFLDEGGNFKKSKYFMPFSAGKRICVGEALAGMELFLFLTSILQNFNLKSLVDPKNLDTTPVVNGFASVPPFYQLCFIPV
Cytochrome P450 3A4, sequence (P08684 whole entry): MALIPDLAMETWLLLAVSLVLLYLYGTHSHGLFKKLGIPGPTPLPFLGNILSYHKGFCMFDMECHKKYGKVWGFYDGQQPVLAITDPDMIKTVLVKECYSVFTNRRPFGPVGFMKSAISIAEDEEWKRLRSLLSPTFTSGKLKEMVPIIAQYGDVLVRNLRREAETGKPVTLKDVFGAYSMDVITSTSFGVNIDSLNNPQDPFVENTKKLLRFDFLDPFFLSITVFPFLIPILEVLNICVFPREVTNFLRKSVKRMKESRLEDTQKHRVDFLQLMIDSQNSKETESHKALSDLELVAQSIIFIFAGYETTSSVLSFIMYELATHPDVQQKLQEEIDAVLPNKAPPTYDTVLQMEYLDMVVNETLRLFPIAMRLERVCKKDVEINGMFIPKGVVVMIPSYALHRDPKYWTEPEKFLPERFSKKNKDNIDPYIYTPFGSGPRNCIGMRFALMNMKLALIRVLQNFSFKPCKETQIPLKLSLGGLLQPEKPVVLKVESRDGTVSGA
Cytochrome P450 2D6, sequence (P10635 whole entry): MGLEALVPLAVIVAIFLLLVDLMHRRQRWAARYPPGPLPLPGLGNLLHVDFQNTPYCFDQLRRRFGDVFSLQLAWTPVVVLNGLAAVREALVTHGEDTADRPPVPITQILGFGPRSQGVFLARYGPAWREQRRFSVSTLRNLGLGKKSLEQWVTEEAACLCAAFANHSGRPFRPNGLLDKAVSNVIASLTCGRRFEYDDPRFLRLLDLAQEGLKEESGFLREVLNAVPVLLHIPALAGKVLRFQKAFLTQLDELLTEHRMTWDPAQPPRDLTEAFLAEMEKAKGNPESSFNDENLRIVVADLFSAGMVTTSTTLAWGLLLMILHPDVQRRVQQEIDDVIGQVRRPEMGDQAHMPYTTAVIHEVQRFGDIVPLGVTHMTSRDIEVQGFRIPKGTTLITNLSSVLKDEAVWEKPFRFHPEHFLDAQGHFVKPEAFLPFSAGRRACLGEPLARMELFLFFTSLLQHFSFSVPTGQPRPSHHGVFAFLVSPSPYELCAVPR

As for `COc1ccc(CNC(=O)C2(c3ccc(Cl)cc3)CC2)cc1`, the IC50 in [1] was > 47.1 µM (inactive). In addition, in [2], the EC50 was > 53 µM (inactive).
With `Cc1cc(NCCCn2ccnc2)n2nc(C)c(-c3ccc(Cl)cc3)c2n1`, the AC50 in [3] is 6.35 µM (active).
With `CC(C)CCn1cnc2c(c1=O)c1nc3ccccc3nc1n2Cc1ccc2c(c1)OCO2`, the EC50 in [4], in test [5] and in test [6] was > 120 µM (not active) in each case.
Take `S=C(NCc1ccccc1)NCc1ccc(CNC(=S)NCc2ccccc2)cc1`: the EC50 in test [4], in test [5] and in test [6] was > 120 µM (not active) in each case.
For the compound `CCc1c(C)nc(N)n2c(SCC(=O)Nc3ccccc3OC)nnc12`, the EC50 in [4], in [5] and in [6] was > 120 µM (not active) in each case.
As for `CCS(=O)(=O)c1nc(S(=O)(=O)c2ccc(C)cc2)c(N2CC(C)CC(C)C2)s1` (centres undefined), the EC50 in test [4], in [5] and in test [6] was > 120 µM (not active) throughout.
Regarding `COc1cccc(CN2CCC(Oc3ccc(C(=O)NCc4ccccn4)cc3)CC2)c1O`, the IC50 in [1] is > 47.1 µM (inactive). For the same compound, the EC50 in [2] was > 53 µM (inactive).
For the compound `CCCN(C(=O)c1cc(Cl)nc2ccccc12)C1CCS(=O)(=O)C1` (centres undefined), the IC50 in test [1] was > 47.1 µM (inactive). Also, in test [2], the EC50 is > 53 µM (inactive).
In the same order, the values of `CC1(C)Cc2ccccc2C(c2cc3ccccc3oc2=O)=N1` are > 47.1 µM (inactive) and > 53 µM (inactive).
With `COc1ccccc1C(=O)COC(=O)c1c(-c2ccccc2)noc1C`, the IC50 in test [1] was > 47.1 µM (inactive). Moreover, the EC50 in test [2] was > 53 µM (inactive).
Take `COc1ccc(-c2nc3cnc(N4CCNCC4)nc3n(CCC#N)c2=O)cc1`: the concentration at half-maximal activity (AC50) at Cytochrome P450 1A2 was 15.8 µM (inconclusive); at Cytochrome P450 3A4, 12.6 µM (inconclusive).
As to `CCC(C)[C@H](NC(=O)N1CCCC1)C(=O)O` (some centres undefined), the EC50 in test [4], in test [5] and in test [6] was > 120 µM (not active) throughout.
Turning to `COc1ccc(C(=O)Nc2cc([N+](=O)[O-])ccc2N2CCCC2)cc1`, the values for the IC50 at Fatty acid synthase [7] and on Fatty acid synthase [8] were 15.1 µM (active) and 12.3 µM (active), respectively.
In the case of `COc1ccc(/C=C\C(=O)Nc2ccccc2C(=O)O)cc1OC`, the results for the AC50 at Cytochrome P450 1A2, on Cytochrome P450 3A4 and on Cytochrome P450 2C9 were 39.8 µM (inconclusive), 39.8 µM (inconclusive) and 15.8 µM (inconclusive), respectively.
Consider `COc1ccc(CN2CCN(Cc3cccn3-c3ncccn3)CC2CCO)c(C)c1C` (centres undefined), for which the results for the EC50 in [4], in [5] and in test [6] were > 120 µM (not active), > 120 µM (not active) and 12.1 µM (active), respectively.
Regarding `Cc1ccc(-c2csc(NC(=S)NC(=O)/C=C/c3ccco3)n2)cc1`, the results for the AC50 on Cytochrome P450 3A4 and at Cytochrome P450 2C9 were 15.8 µM (inconclusive) and 0.282 µM (inconclusive), respectively.
On to `CCOc1ccc(N(C(C)C(=O)NC(C)CC)S(C)(=O)=O)cc1` (centres undefined), for which the figures for the AC50 at Cytochrome P450 2C19 and on Cytochrome P450 3A4 were 7.94 µM (inconclusive) and 14.1 µM (inconclusive), respectively.
Take `CCOC(=O)C1=C(C)N2C(=C(C#N)[C@@H]1c1ccc(C(=O)OC)cc1)SC[C@@]2(O)C(C)(C)C`: in test [3], the AC50 was 0.33 µM (active).
With `Cc1cccc(N2CCN(C(=O)CC(NC(=O)c3ccccc3)c3ccccc3)CC2C)c1` (centres undefined), the EC50 in test [4], in test [5] and in test [6] was > 120 µM (not active) throughout.
As to `O=C(NCCCN1CCCC1=O)Nc1ccc(F)c(Cl)c1`, the concentration at half-maximal activity (AC50) on Cytochrome P450 2C19 was 39.8 µM (inconclusive); on Cytochrome P450 1A2, 22.4 µM (inconclusive); on Cytochrome P450 3A4, 28.2 µM (inconclusive).
Take `CC(C)(C)c1ccc(C(=O)CS(=O)(=O)c2ccccc2)cc1`: the IC50 in test [1] was > 47.1 µM (inactive). Further, the EC50 in [2] was > 53 µM (inactive).
Regarding `O=C(COCC(=O)Nc1cccc(C(F)(F)F)c1)Nc1cccc(C(F)(F)F)c1`, in test [3], the AC50 is 5.16 µM (active).
Take `O=C(Nc1ccc(-c2csc(Nc3cccc(C(F)(F)F)c3)n2)cc1)c1ccccc1`: in [9], the half-maximal cytotoxic concentration (CC50) was 17.2 µM (active). Moreover, the results for the EC50 in test [10] and in [11] were 0.859 µM (active) and 7.93 µM (active), respectively. In addition, the AC50 in [3] was 1.54 µM (active).
For `O=C(O)CC(NC(=O)C(c1ccccc1)c1ccccc1)c1cccc([N+](=O)[O-])c1` (centres undefined), the IC50 is 9.02 µM (active) on Fatty acid synthase [7] and 7.4 µM (active) on Fatty acid synthase [8].
Consider `O=c1c2[nH]cnc2n(-c2ccc(F)cc2)c(=O)n1Cc1ccccc1`, for which the EC50 is > 120 µM (not active) in test [4], 39.3 µM (active) in test [5] and > 120 µM (not active) in [6].
For `CCCOc1ccc(NC(=O)CC2C(=O)N(c3ccc(OCC)cc3)C(=S)N2C2CC2)cc1` (centres undefined), the results for the EC50 in test [4], in [5] and in test [6] were > 120 µM (not active), > 120 µM (not active) and 12.1 µM (active), respectively.
Consider `Cc1ccc(C(=O)NC2CCCCCC2)cc1N1CCCC1=O`, for which the half-maximal activity concentration (AC50) at Cytochrome P450 3A4 and at Cytochrome P450 2C9 was 25.1 µM (inconclusive) each time.
With `Cc1c(C(=O)Nc2c(F)cccc2F)sc2ncn(CC(=O)N3CCCCC3)c(=O)c12`, in [1], the IC50 is > 47.1 µM (inactive). Also, the EC50 in test [2] is > 53 µM (inactive).
As for `O=C(COc1ccc(Cl)cc1Cl)Nc1ccccc1F`, the IC50 in [1] is > 47.1 µM (inactive). The EC50 in test [2] was > 53 µM (inactive).
Take `C=CCC(C)(NCc1ccccc1)c1ccco1` (centres undefined): the half-maximal activity concentration (AC50) on Cytochrome P450 3A4 is 15.8 µM (inconclusive); at Cytochrome P450 2C9, 0.0355 µM (inconclusive).
With `CCN(CC(=O)Nc1ccc(NC(C)=O)cc1)C(=O)c1ccc(=O)n(C)n1`, the IC50 in [1] is > 47.1 µM (inactive). The EC50 in [2] was > 53 µM (inactive).
Consider `Cc1ccc(C(=O)N/N=C\c2ccccn2)cn1`, for which the IC50 in test [1] is > 47.1 µM (inactive). The EC50 in [2] is > 53 µM (inactive).
For the compound `COc1cc(/C=N/NC(=O)c2ccc(CN(C)S(=O)(=O)c3ccc(C)cc3)cc2)ccc1O`, the concentration at half-maximal activity (AC50) in test [3] was 2.5 µM (active).
For the compound `CCOC(=O)c1ccc(-c2ccc(/C=N/NC(=O)c3cncc(Br)c3)o2)cc1`, the EC50 with H4 is 117 µM (active).
Regarding `Cc1c(C(=O)N/N=C/c2ccccc2)sc(=S)n1C`, the concentration at half-maximal activity (AC50) on Cytochrome P450 2C19 is 25.1 µM (inconclusive); on Cytochrome P450 2D6 it was 0.01 µM (inconclusive); at Cytochrome P450 3A4 it was 25.1 µM (inconclusive).
